Values joined by “and” are separate entries in the source; they are usually repeats but may differ in a detail not shown here. Equal entries are not always repeated.

One assay concerns the target T1, human Branched Chain Amino Acid Aminotransferase cytosolic form (hBCATc) (Homo sapiens, UniProt P54687).
T1 construct: inferred from purification on a Ni-charged chelating column with imidazole elution; made in house; host or cells: E. coli BL21(DE3)
T1 sequence (P54687 1-386): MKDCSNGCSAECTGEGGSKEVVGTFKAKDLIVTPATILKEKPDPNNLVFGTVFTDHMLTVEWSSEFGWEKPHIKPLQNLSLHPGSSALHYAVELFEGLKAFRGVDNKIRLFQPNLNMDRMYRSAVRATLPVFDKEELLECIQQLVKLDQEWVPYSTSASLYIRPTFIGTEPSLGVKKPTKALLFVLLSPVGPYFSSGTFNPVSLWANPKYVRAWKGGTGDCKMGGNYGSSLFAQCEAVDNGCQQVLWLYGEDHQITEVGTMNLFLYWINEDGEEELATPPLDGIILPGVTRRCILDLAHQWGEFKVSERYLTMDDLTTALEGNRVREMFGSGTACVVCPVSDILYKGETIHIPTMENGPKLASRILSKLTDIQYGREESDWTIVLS
The assay is described as follows: In vitro coupled enzyme assay, hBCATc. Conditions: 37° C., 25 mM phosphate buffer pH 7.8; coupled glutamate dehydrogenase assay; read-out: hBCATc I50. In kind it is biochemical. As for the experimental part: In vitro enzyme assay—human Branched Chain Amino Acid Aminotransferase cytosolic form (hBCATc) and mitochondrial form (hBCATm) were assayed at 37° C. in 25 mM phosphate buffer pH 7.8. In addition, 2 mM DTT and 12.5 mM EDTA were added to the assay mixture. A coupling enzyme assay was used to monitor the production of glutamate. The formation of NADH from NAD+at […] was followed on a 96-well plate Molecular Devices plate reader. The following components were used in this coupled assay: 4 mM ADP, 1 mM NAD+, 750 μM L-Leucine, 500 μM (α-ketoglutarate, 10 μM pyridoxal phosphate, 1 unit glutamate dehydrogenase, and 1.25 μg of the appropriate BCAT enzyme. Inhibitions by compounds were assayed by adding various concentrations to this coupled assay procedure as a DMSO stock up to a 5% v/v DMSO/buffer ratio. Data is shown in Table 1.
Enzyme Preparation—humanBCATc was expressed in BL21(DE3) cells. A growing culture of cells was induced with 1 mM IPTG at room temperature overnight. These cells were harvested by centrifugation at 10,000 g for 20 minutes. The supernatant was discarded, and the cells were stored at −80° C. until needed. The protein was purified by the following method. The cell paste was resuspended in extraction buffer (0.1 M phosphate, pH 8.0, with 0.01 M Tris-HCL and 5 mM TCEP and then lysed on a French Press at 1000 psi. The lysate was centrifuged at 10,000 g for 15 minutes, and the pellet was discarded. The supernatant was loaded onto a Hitrap Chelating column previously charged with 0.1 M NiSO4 and washed with 3 to 4 column volumes of extraction buffer. The column was then washed with 0.01 Tris, pH 7.5, 10% glycerol, 150 mM NaCl, 5 mM TCEP for two column volumes. The column was then further washed with two column volumes of 0.1 M phosphate, pH 6.0, 0.01 M Tris, 10% glycerol and 750 mM NaCl. Finally, the column was washed with two column volumes of the same buffer plus 50 mM imidazole. The BCAT enzyme was then eluted with the same buffer but with 350 mM imidazole. The eluant was then dialyzed overnight against 10 mM phosphate buffer pH 8.0, 10% glycerol, and 5 mM TCEP. The dialyzed protein was then loaded onto a Q-sepharose column and eluted using a salt gradient. Active fractions were collected and further purified on a Superose-12 column to yield pure BCAT protein.
Regarding `COC(=O)/C=C1\SC(Nc2ccccc2C)=NC1=O` [Example 4, [2-(2-Methyl-phenylamino)-4-oxo-4H-thiazol-5-ylidene]-acetic Acid Methyl Ester], the IC50 was 43.9 µM and 29.6 µM.
The same measure, in the same setting: in the case of `CCCN(CC1CC1)C(=O)/C=C1\SC(Nc2c(Cl)cccc2Cl)=NC1=O` [Example 31, N-Cyclopropylmethyl-2-[2-(2,6-dichloro-phenylamino)-4-oxo-4H-thiazol-5-ylidene]-N-propyl-acetamide] it was 11.2 µM; in that of `CN1CCC(N(C)C(=O)/C=C2\SC(Nc3c(Cl)cccc3Cl)=NC2=O)C1` (stereo not drawn) [Example 32, 2-[2-(2,6-Dichloro-phenylamino)-4-oxo-4H-thiazol-5-ylidene]-N-methyl-N-(1-methyl-pyrrolidin-3-yl)-acetamide], 89.8 µM; in that of `O=C(/C=C1\SC(Nc2c(Cl)cccc2Cl)=NC1=O)NCCOCCO` [Example 26, 2-[2-(2,6-Dichloro-phenylamino)-4-oxo-4H-thiazol-5-ylidene]-N-[2-(2-hydroxy-ethoxy)-ethyl]-acetamide], 56.3 µM.
The same measure, in the same setting: in the case of `O=C(/C=C1\SC(Nc2c(Cl)cccc2Cl)=NC1=O)NCC(O)CO` (stereo not drawn) [Example 28, 2-[2-(2,6-Dichloro-phenylamino)-4-oxo-4H-thiazol-5-ylidene]-N-(2,3-dihydroxy-propyl)-acetamide] it was 66.9 µM.
On the same count and under the same terms, in the case of `O=C(/C=C1\SC(Nc2c(Cl)cccc2Cl)=NC1=O)NCCCN1CCCC1` [Example 19, 2-[2-(2,6-Dichloro-phenylamino)-4-oxo-4H-thiazol-5-ylidene]-N-(3-pyrrolidin-1-yl-propyl)-acetamide] it was 55 µM; in that of `CCOC(=O)/C=C1\SC(Nc2c(Cl)cccc2Cl)=NC1=O` [Example 2, [2-(2,6-Dichloro-phenylamino)-4-oxo-4H-thiazol-5-ylidene]-acetic Acid Ethyl Ester], 52.5 µM.
Regarding `CCN1CCN(C(=O)/C=C2\SC(Nc3c(Cl)cccc3Cl)=NC2=O)CC1` [Example 18, 2-(2,6-Dichloro-phenylamino)-5-[2-(4-ethyl-piperazin-1-yl)-2-oxo-ethylidene)-thiazol-4-one], the IC50 was found to be 64.1 µM.
`CC(C)NC(=O)/C=C1\SC(Nc2c(Cl)cccc2Cl)=NC1=O` [Example 20, 2-[2-(2,6-Dichloro-phenylamino)-4-oxo-4H-thiazol-5-ylidene]-N-isopropyl-acetamide]: the IC50 is 65.9 µM.
`CCNC(=O)/C=C1\SC(Nc2c(Cl)cccc2Cl)=NC1=O` [Example 7, [2-(2,6-Dichloro-phenylamino)-4-oxo-4H-thiazol-5-ylidene]-N-ethyl-acetamide]: the IC50 is 13.1 µM and 3.15 µM.
`CNC(=O)/C=C1\SC(Nc2c(Cl)cccc2Cl)=NC1=O` [Example 6, [2-(2,6-Dichloro-phenylamino)-4-oxo-4H-thiazol-5-ylidene]-N-methyl-acetamide]: the IC50 is 3.1 µM and 1.9 µM.
The same measure, in the same setting: in the case of `O=C1N=C(Nc2c(Cl)cccc2Cl)S/C1=C\C(=O)N1CCCC1` [Example 21, 2-(2,6-Dichloro-phenylamino)-5-(2-oxo-2-pyrrolidin-1-yl-ethylidene)-thiazol-4-one] it was 13.8 µM; in that of `CONC(=O)/C=C1\SC(Nc2c(Cl)cccc2Cl)=NC1=O` [Example 10, [2-(2,6-Dichloro-phenylamino)-4-oxo-4H-thiazol-5-ylidene]-N-methoxy-acetamide], 31.7 µM; in that of `O=C(/C=C1\SC(Nc2c(Cl)cccc2Cl)=NC1=O)NC1CCCCC1` [Example 22, N-Cyclohexyl-2-[2-(2,6-dichloro-phenylamino)-4-oxo-4H-thiazol-5-ylidene]-acetamide], 22.6 µM.
For `COC(CNC(=O)/C=C1\SC(Nc2c(Cl)cccc2Cl)=NC1=O)OC` [Example 23, 2-[2-(2,6-Dichloro-phenylamino)-4-oxo-4H-thiazol-5-ylidene]-N-(2,2-dimethoxy-ethyl)-acetamide], the IC50 was found to be 39.8 µM.
The same measure, in the same setting: in the case of `CC(C)(C)OC(=O)/C=C1\SC(Nc2c(Cl)cccc2Cl)=NC1=O` [Example 3, [2-(2,6-Dichloro-phenylamino)-4-oxo-4H-thiazol-5-ylidene]-acetic Acid Tert-butyl Ester] it was 68.6 µM and 36.9 µM.
The same measure, in the same setting: in the case of `COC(=O)/C=C1\SC(Nc2c(Cl)cccc2Cl)=NC1=O` [Example 1, [2-(2,6-Dichloro-phenylamino)-4-oxo-4H-thiazol-5-ylidene]-acetic Acid Methyl Ester] it was 4.1 µM.
Same read-out and setting: in the case of `O=C(/C=C1\SC(Nc2c(Cl)cccc2Cl)=NC1=O)NCCOc1ccccc1` [Example 33, 2-[2-(2,6-Dichloro-phenylamino)-4-oxo-4H-thiazol-5-ylidene]-N-(2-phenoxy-ethyl)-acetamide] it was 40.4 µM; in that of `O=C1N=C(Nc2c(Cl)cccc2Cl)S/C1=C\C(=O)N1CCCCC1` [Example 17, 2-(2,6-Dichloro-phenylamino)-5-(2-oxo-2-piperidine-1-yl-ethylidene)-thiazol-4-one], 12.8 µM; in that of `CC1CC(C)CN(C(=O)/C=C2\SC(Nc3c(Cl)cccc3Cl)=NC2=O)C1` (stereo not drawn) [Example 24, 2-(2,6-Dichloro-phenylamino)-5-[2-(3,5-dimethyl-piperidin-1-yl)-2-oxo-ethylidene)-thiazol-4-one], 8.97 µM.
On to `O=C(/C=C1\SC(Nc2c(Cl)cccc2Cl)=NC1=O)NC1CCCC1` [Example 30, N-Cyclopentyl-2-[2-(2,6-dichloro-phenylamino)-4-oxo-4H-thiazol-5-ylidene]-acetamide], for which the IC50 came to 16.6 µM.
As for `CNCCCCCCCCN(C)C(=O)/C=C1\SC(Nc2c(Cl)cccc2Cl)=NC1=O` [Example 34, 2-[2-(2,6-Dichloro-phenylamino)-4-oxo-4H-thiazol-5-ylidene]-N-methyl-N-(8-methylamino-octyl)-acetamide], the IC50 is 75.6 µM.
Still for that read-out and setting: in the case of `COCCNC(=O)/C=C1\SC(Nc2c(Cl)cccc2Cl)=NC1=O` [Example 16, 2-[2-(2,6-Dichloro-phenylamino)-4-oxo-4H-thiazol-5-ylidene]-N-(2-methoxy-ethyl)-acetamide] it was 82.7 µM; in that of `C=C(C)CNC(=O)/C=C1\SC(Nc2c(Cl)cccc2Cl)=NC1=O` [Example 29, 2-[2-(2,6-Dichloro-phenylamino)-4-oxo-4H-thiazol-5-ylidene]-N-(2-methyl-allyl)-acetamide], 31.1 µM.
The same measure, in the same setting: in the case of `CN(C)C1CCN(C(=O)/C=C2\SC(Nc3c(Cl)cccc3Cl)=NC2=O)C1` (stereo not drawn) [Example 25, 2-(2,6-Dichloro-phenylamino)-5-[2-(3-dimethylamino-pyrrolidin-1-yl)-2-oxo-ethylidene)-thiazol-4-one] it was 65.1 µM.

Staying with this assay, now noted: @ 20 μM compound; 37° C., pH 7.8 coupled assay.
“N-(1-Benzyl-pyrrolidin-3-yl)-2-[2-(2,6-dichloro-phenylamino)-4-oxo-4H-thiazol-5-ylidene]-N-methyl-acetamide [Example 36]”: the “hBCATc Inhibit % @ 20 μM” value was “Inhibit 29% @ 20 μM”.

The same assay, now with this note: @ 20 μM compound; 37° C., pH 7.8 coupled assay; read-out: hBCATc Inhibit % @ 20 μM.
In the case of `CC(C)CCC(C)NC(=O)/C=C1\SC(Nc2c(Cl)cccc2Cl)=NC1=O` (stereo not drawn) [Example 37, 2-[2-(2,6-Dichloro-phenylamino)-4-oxo-4H-thiazol-5-ylidene]-N-(1,4-dimethyl-pentyl)-acetamide], the inhibition at 20 µM came to 34%.
On the same count and under the same terms, in the case of `O=C(/C=C1\SC(Nc2c(Cl)cccc2Cl)=NC1=O)NCc1ccc(Cl)cc1` [Example 35, N-(4-Chloro-benzyl)-2-[2-(2,6-dichloro-phenylamino)-4-oxo-4H-thiazol-5-ylidene]-acetamide] it was 130%; in that of `O=C(/C=C1\SC(Nc2c(Cl)cccc2Cl)=NC1=O)NC1CCCCCC1` [Example 39, N-Cycloheptyl-2-[2-(2,6-dichloro-phenylamino)-4-oxo-4H-thiazol-5-ylidene]-acetamide], 39%.
Take `CC(C)CC(C)NC(=O)/C=C1\SC(Nc2c(Cl)cccc2Cl)=NC1=O` (stereo not drawn) [Example 38, 2-[2-(2,6-Dichloro-phenylamino)-4-oxo-4H-thiazol-5-ylidene]-N-(1 ,3-dimethyl-butyl)-acetamide]: the inhibition at 20 µM was found to be 33%.

The values are drawn from US6632831B2, “Branched chain amino acid-dependent aminotransferase inhibitors and their use in the treatment of neurodegenerative diseases” (Pfizer Inc., priority 2001, dated 2003).
